Experimental findings from patent US20100035926A1, “PYRAZOLE DERIVATIVES AS NON-STEROIDAL GLUCOCORTICOID RECEPTOR LIGANDS” (priority 2006, published 2010) are described below.

Assay [1] has as its target T1, Progesterone Receptor (Homo sapiens, UniProt P06401).
T1 construct: expressed in transfected cells; host or cells: CV-1 cells transduced with PRb-BacMam and MMTV-BacMam
T1 sequence (P06401 1-933): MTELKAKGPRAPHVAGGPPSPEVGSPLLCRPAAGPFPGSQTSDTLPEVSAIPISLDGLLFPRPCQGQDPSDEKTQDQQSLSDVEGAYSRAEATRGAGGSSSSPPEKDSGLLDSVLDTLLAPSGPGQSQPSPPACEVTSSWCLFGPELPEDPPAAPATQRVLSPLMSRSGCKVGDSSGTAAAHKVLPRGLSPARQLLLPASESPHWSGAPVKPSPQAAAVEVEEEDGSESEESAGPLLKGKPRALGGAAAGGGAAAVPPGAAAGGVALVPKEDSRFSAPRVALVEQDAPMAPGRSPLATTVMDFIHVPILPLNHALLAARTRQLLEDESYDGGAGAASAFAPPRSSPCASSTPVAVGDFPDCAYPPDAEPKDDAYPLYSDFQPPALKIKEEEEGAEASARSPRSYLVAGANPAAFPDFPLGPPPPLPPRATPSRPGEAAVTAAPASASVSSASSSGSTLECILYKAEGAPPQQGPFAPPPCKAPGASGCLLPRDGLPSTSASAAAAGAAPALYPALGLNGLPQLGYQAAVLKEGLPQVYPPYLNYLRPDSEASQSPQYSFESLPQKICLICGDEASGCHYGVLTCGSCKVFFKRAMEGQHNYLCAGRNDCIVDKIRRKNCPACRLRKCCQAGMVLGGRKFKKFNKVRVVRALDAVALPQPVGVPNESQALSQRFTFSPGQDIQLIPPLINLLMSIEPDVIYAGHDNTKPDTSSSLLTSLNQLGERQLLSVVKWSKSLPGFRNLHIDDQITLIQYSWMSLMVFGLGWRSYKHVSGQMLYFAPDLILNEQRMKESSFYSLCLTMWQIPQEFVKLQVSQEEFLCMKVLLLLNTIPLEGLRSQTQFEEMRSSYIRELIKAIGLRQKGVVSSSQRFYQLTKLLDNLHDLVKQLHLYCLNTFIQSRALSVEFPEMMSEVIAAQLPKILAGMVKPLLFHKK
As to the kind of experiment: Assay for Progesterone Receptor Agonist Activity (CV-1 cells, PRb-BacMam, MMTV-BacMam). As to conditions: at least once in this assay, read-out: progesterone receptor agonist pEC50 (converted). In kind it is cell-based. As for the experimental part: A T225 flask of CV-1 cells at a density of 80% confluency was washed with PBS, detached from the flask using 0.25% trypsin and counted using a Sysmex KX-21N. Cells were diluted in DMEM containing 10% Hyclone, 2 mM […] and 1% Pen/Strep at 140 cells/μl and transduced with 10% PRb-BacMam and 10% MMTV-BacMam. […] of suspension cells were dispensed to each well of white Nunc 384-well plates, containing compounds at the required concentration. After 24 hr 10 μl of Steadylite were added to each well of the plates. Plates were incubated in the dark for 10 min before reading them on a Viewlux reader. Dose response curves were constructed from which pEC50 values were estimated.

Assay [2] addresses T2, GR (Homo sapiens, UniProt P04150).
T2 construct: endogenous in cells; host or cells: A549 (human lung carcinoma, ECACC No. 86012804), stably transfected with reporter plasmids only
T2 sequence (P04150 1-777): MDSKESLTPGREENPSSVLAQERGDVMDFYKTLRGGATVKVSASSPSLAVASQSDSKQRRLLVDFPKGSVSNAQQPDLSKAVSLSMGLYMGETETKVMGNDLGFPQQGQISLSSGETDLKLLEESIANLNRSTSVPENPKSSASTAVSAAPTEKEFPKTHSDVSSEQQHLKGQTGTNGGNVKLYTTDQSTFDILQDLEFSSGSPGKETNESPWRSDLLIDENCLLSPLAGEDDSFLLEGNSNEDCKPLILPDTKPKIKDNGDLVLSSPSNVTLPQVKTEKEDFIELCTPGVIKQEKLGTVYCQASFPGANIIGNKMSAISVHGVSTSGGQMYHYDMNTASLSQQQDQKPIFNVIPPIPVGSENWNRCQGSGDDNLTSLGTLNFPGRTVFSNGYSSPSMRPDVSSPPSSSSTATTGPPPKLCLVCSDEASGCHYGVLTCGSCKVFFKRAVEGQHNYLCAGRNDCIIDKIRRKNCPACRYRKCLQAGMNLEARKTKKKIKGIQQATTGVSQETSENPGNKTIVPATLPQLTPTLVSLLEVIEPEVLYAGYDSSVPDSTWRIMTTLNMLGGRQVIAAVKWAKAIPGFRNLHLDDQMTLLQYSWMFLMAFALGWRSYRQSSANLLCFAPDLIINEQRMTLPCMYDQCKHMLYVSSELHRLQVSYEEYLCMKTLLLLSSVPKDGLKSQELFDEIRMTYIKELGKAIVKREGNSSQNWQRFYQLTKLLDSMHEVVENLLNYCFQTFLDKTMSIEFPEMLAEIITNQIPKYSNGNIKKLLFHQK
As to the kind of experiment: GR Functional Assay - NFκB Assay (A549 SPAP cells, TNFα stimulated). As to conditions: for Emax: agonists, read-out: average maximum asymptote in the NFkB assay. Type of assay: cell-based. How it is done:
Stimulation of the cell line with TNFα results in intracellular signal transduction and ultimately translocation of NFκB into the nucleus. This activates the inserted DNA sequence resulting in transcription of the integrated SPAP gene, which is quantified using a calorimetric assay. […] The stably transfected cell line was grown as a monolayer in DMEM supplemented with FCS-HI (10%), Non-essential amino acids (1%), L-Glutamine (2 mM), Pen/Strep (1%) and Geneticin (50 mg/ml).
A 70% confluent T225 flask of A549 SPAP cells was harvested by centrifugation for 5 mins at 200 g, resuspended in assay buffer (DMEM supplemented with 10% FCS 2×HI, 2 mM L-Glutamine, 1% Pen/Strep and Non essential amino acids) and diluted to 0.16×10^6/ml. 60 μl of cell solution was dispensed to each well of clear Nunc 384-well plates, containing compound at the required concentration. […] Plates were equilibrated to room temperature for 1 hr prior to the addition of 25 μl of pNPP buffer (1M Diethanolamine pH 9.8, 0.5 mM MgCl2, 0.28M NaCl, 2 mg/ml pNPP) to each well of assay plates.

Assay [3] concerns the target T2, GR. As to the kind of experiment: GR Agonist Assay - MMTV Assay (A549 MMTV cells, renilla luciferase reporter). As to conditions: 6 h, agonists, read-out: average maximum asymptote in the MMTV agonist assay. In kind it is cell-based. How it is done: Stimulation of the cell line with GR agonists results in intracellular signal transduction and ultimately translocation of GR into the nucleus. This activates the inserted DNA sequence resulting in transcription of the integrated luciferase gene, which is quantified using a light emission. The stably transfected cell line was grown as a monolayer in DMEM supplemented with FCS-HI (10%), Non-essential amino acids (1%), L-Glutamine (2 mM), Pen/Strep (1%) and Geneticin (50 mg/ml).
A 90% confluent T175 flask of A549 MMTV cells was harvested by centrifugation for 5 min at 200 g, resuspended in assay buffer (DMEM supplemented with 10% FCS 2×HI, 2 mM Glutamax, Non essential amino acids and 25 mM HEPES) and diluted to 0.1×10^6/ml. 70 μl of cell solution was dispensed to each well of white Nunc 384-well plates, containing compound at the required concentration. […] The plates were covered to protect the reagents from light, and then incubated at room temperature for approximately 15 mins before reading them on a Viewlux.
A general note: In a reporter assay the amount or activity of a reporter protein is the signal.

Assay [4] has as its target T3, glucocorticoid receptor (Homo sapiens, UniProt P04150).
T3 construct: a partially purified full length glucocorticoid receptor
T3 sequence (P04150 1-777): T2 sequence (P04150 1-777)
As to the kind of experiment: Glucocorticoid Receptor Binding Assay (fluorescence polarisation, displacement of Alexa 555 labelled dexamethasone derivative). To be noted: at least once in this assay; read-out: glucocorticoid binding pIC50 (converted). How it is done:
Compounds were solvated and diluted in DMSO, and transferred directly into assay plates. Fluorescent dexamethasone and a partially purified full length glucocorticoid receptor were added to the plates, together with buffer components to stabilise the GR protein and incubated at room temperature for 2 hr in the dark. Binding of each compound was assessed by analysing the displacement of fluorescent ligand by measuring the decrease in fluorescence polarisation signal from the mixture.
A general note: In fluorescence polarisation assays a small probe gives low polarisation when free and higher when bound to something large.

[5] abbreviates: at least once in the NFkB assay, A549 SPAP cells, read-out: pIC50 in the NFkB assay (converted).
The mark [6] stands for this setting: at least once, examples listed as agonists in NFkB and MMTV assays, read-out: potency pIC50 in the NFKB assay (converted).

Structures are written as SMILES. Read-outs that look alike come from different tables or passages of the source.

Turning to `CCN(CC(O)(CNC(=O)c1cnn(-c2ccc(F)cc2)c1N)C(F)(F)F)C(=O)c1ncccc1Cl` (racemic) [Example 3 (racemic), N-[2-[({[5-Amino-1-(4-fluorophenyl)-1H-pyrazol-4-yl]carbonyl]amino)methyl]-3,3,3-trifluoro-2-hydroxypropyl}-3-chloro-N-ethyl-2-Pyridinecarboxamide], the EC50 in assay [1] was over 1 µM.

With `CCN(CC(O)(CNC(=O)c1cnn(-c2ccc(F)cc2)c1N)C(F)(F)F)C(=O)c1cccc2cccnc12` (racemic) [Example 8 (racemic), N-{2-[({[5-amino-1-(4-fluorophenyl)-1H-pyrazol-4-yl]carbonyl}amino)methyl]-3,3,3-trifluoro-2-hydroxypropyl}-N-ethyl-8-quinolinecarboxamide], the Emax in assay [2] (A549 SPAP cells) and in assay [3] was at least 40% in each case. The IC50 in assay [2] (setting [5]) was under 1 µM; in assay [2] (setting [6]) it was under 0.316 µM. Also, the EC50 in assay [1] is over 1 µM.

With `CCN(CC(O)(CNC(=O)c1cnn(-c2ccc(F)cc2)c1N)C(F)(F)F)C(=O)c1ccccc1Cl` (racemic) [Example 16 (racemic), 5-amino-N-(2-{[[(2-chlorophenyl)car-bonyl](ethyl)amino]methyl}-3,3,3-trifluoro-2-hydroxypropyl)-1-(4-fluorophenyl)-1H-pyrazole-4-carboxamide], the EC50 in assay [1] is over 1 µM.

Take `CCN(CC(O)(CNC(=O)c1cnn(-c2ccccc2)c1N)C(F)(F)F)C(=O)c1ccccc1` (racemic) [Example 43 (racemic), 5-amino-N-(2-{[ethyl(phenylcar-bonyl)amino]methyl}-3,3,3-trifluoro-2-hydroxypropyl)-1-phenyl-1H-pyrazole-4-carboxamide]: the IC50 in assay [4] is under 1 µM; in assay [2] (setting [6]) it was under 0.316 µM. For the same compound, the Emax in assay [2] (A549 SPAP cells) and in assay [3] was at least 40% throughout.

Take `Nc1c(C(=O)NCC(O)(CN(CCF)C(=O)c2ccccc2)C(F)(F)F)cnn1-c1ccc(F)cc1` (single isomer, unassigned) [Example 1 Enantiomer 1, 5-Amino-1-(4-fluorophenyl)-N-(3,3,3-trifluoro-2-{[(2-fluoroethyl)(phenylcarbonyl)amino]methyl}-2-hydroxypropyl)-1H-pyrazole-4-carboxamide]: the IC50 in assay [4] and in assay [2] (setting [5]) was under 1 µM each time. Further, the EC50 in assay [1] is over 1 µM.

`CCN(CC(O)(CNC(=O)c1cnn(-c2ccc(F)cc2)c1N)C(F)(F)F)C(=O)c1ccccc1F` (single isomer, unassigned) [Example 4 Enantiomer 1, 5-Amino-N-[2-({ethyl[(2-fluorophenyl)carbonyl]amino}methyl)-3,3,3-trifluoro-2-hydroxypropyl]-1-(4-fluorophenyl)-1H-pyrazole-4-carboxamide]: in assay [2] (setting [5]), the IC50 is under 1 µM. For the same compound, in assay [1], the EC50 is over 1 µM.

Regarding `CCN(CC(O)(CNC(=O)c1cnn(-c2ccc(F)cc2)c1N)C(F)(F)F)C(=O)c1ccccc1F` (single isomer, unassigned) [Example 4 Enantiomer 2, 5-Amino-N-[2-({ethyl[(2-fluorophenyl)carbonyl]amino}methyl)-3,3,3-trifluoro-2-hydroxypropyl]-1-(4-fluorophenyl)-1H-pyrazole-4-carboxamide], the IC50 in assay [4] is under 1 µM; in assay [2] (setting [6]), under 0.316 µM. Further, the Emax in assay [2] (A549 SPAP cells) and in assay [3] was at least 40% each time.

With `CCN(CC(O)(CNC(=O)c1cnn(-c2ccc(F)cc2)c1N)C(F)(F)F)C(=O)c1ccccc1` (single isomer, unassigned) [Example 14 Enantiomer 1, 5-amino-N-(2-{[ethyl(phenylcar-bonyl)amino]methyl}-3,3,3-trifluoro-2-hydroxypropyl)-1-(4-fluorophenyl)-1H-pyrazole-4-carboxamide], the IC50 in assay [4] is under 1 µM. For the same compound, the EC50 in assay [1] was over 1 µM.

On to `CCN(CC(O)(CNC(=O)c1cnn(-c2ccc(F)cc2)c1N)C(F)(F)F)C(=O)c1ccccc1Cl` (single isomer, unassigned) [Example 16 Enantiomer 1, 5-amino-N-(2-{[[(2-chlorophenyl)car-bonyl](ethyl)amino]methyl}-3,3,3-trifluoro-2-hydroxypropyl)-1-(4-fluorophenyl)-1H-pyrazole-4-carboxamide], for which the EC50 in assay [1] is over 1 µM.
